Data published in paper PMC8196580, “Identification of Kaurane-Type Diterpenes as Inhibitors of Leishmania Pteridine Reductase I” (Molecules, 2021).
Where two headings read alike, the source gives them in different places.

Assays:
L. major [1] = experiment: ChEMBL dataset of pIC50 values against L. major used for the RF model (Table S1); format: cell-based, Leishmania major; note: call rule not given here
Text: From the ChEMBL database (https://www.ebi.ac.uk/chembl/, accessed on 10 January 2021), we selected a diverse set of 1085 structures that were initially classified according to their predicted activity against L. major.
Excluding these structures minimized the differences in activity values resulting from errors and differences in experimental protocols. […] Standardizer software [JChem, version 16.11.28 (2016), calculation module developed by ChemAxon, https://www.chemaxon.com/, accessed on 20 January 2021] was used to canonize all simplified molecular-input line-entry system (SMILES) codes. After duplicate structures were removed, those with higher pIC50 values were eliminated, facilitating the generation of more restrictive models.

L. major [2] = tested on: L. major; design: method as in ChEMBL; settings: ref ChEMBL, cited from earlier work
[3] = Active/Inactive class assigned to ChemBL structures for Random forest model construction (Table S1)
[4] = ChemBL structures with pIC50 values used for Random forest model construction (Table S1)
[5] = Active/Inactive class assigned to the ChEMBL pIC50 value for Random forest model construction, ref ChEMBL
[6] = ChemBL structures with pIC50 values used for Random forest model construction, L. major

Row | SMILES | Outcome (L. major [1]; [3]) | pIC50 Value (L. major [2]; [4]) | Outcome (L. major [1]; [5]) | pIC50 Value (L. major [2]; [6])
1 | COc1ccc(/C=C/C(=O)c2ccc(O)cc2)c(OC)c1 [CHEMBL434066] | Active | 5.40 | – | –
2 | CNc1ccc(Nc2c3ccccc3nc3ccccc23)cc1OC(C)C [CHEMBL439951] | Active | 5.89 | – | –
3 | C=C[C@@]1(C)Cc2c(OC(C)=O)ccc(OC(C)=O)c2C[C@H]1C(=C)C [CHEMBL442439] | Active | 5.37 | – | –
4 | O=[N+]([O-])c1ccc(-c2nnc(N3CCN(c4ccccc4)CC3)s2)o1 [CHEMBL448103] | Active | 7.00 | – | –
5 | CO[C@H]1C[C@@H](C)[C@H]2[C@H](C[C@@]3(C)[C@@H]4C[C@H](O)[C@H]5C(C)(C)[C@@H](O[C@@H]6OC[C@@H](O)[C@@H](O)[C@H]6O)CC[C@@]56C[C@@]46CC[C@]23C)O1 [CHEMBL450438] | – | – | Inactive | 4.03
6 | C=C[C@H](/C=C\c1ccc(O)cc1)c1ccc(O)cc1 [CHEMBL451713] | – | – | Inactive | 4.92
7 | COCCOC(=O)C1=C(C)NC(C)=C(C(=O)OC/C=C/c2ccccc2)C1c1cccc([N+](=O)[O-])c1 (stereo not shown) [CHEMBL452076] | – | – | Inactive | 4.67
8 | C/C=C/C1=C(OC)C(=O)C(OC)=C(OC)C1=O [CHEMBL454996] | – | – | Inactive | 4.14
9 | C[C@@H]1CC[C@@]2(OC1)O[C@H]1C[C@H]3C4=CCC5=CC(=O)[C@@H](O)C[C@]5(C)[C@H]4C[C@H](O)[C@]3(C)[C@H]1[C@@H]2C [CHEMBL455616] | – | – | Inactive | 4.15
10 | O=C(c1ccccc1Cl)N1CCN(c2nnc(-c3ccc([N+](=O)[O-])o3)s2)CC1 [CHEMBL458179] | – | – | Inactive | 4.97
11 | O=C(c1cccc(Cl)c1)N1CCN(c2nnc(-c3ccc([N+](=O)[O-])o3)s2)CC1 [CHEMBL458527] | – | – | Inactive | 4.88
12 | O=C(c1ccc(Cl)cc1)N1CCN(c2nnc(-c3ccc([N+](=O)[O-])o3)s2)CC1 [CHEMBL458528] | – | – | Inactive | 4.58
13 | O=C(c1cccs1)N1CCN(c2nnc(-c3ccc([N+](=O)[O-])o3)s2)CC1 [CHEMBL458529] | – | – | Inactive | 4.72
14 | O=C(c1ccc(Br)s1)N1CCN(c2nnc(-c3ccc([N+](=O)[O-])o3)s2)CC1 [CHEMBL458771] | – | – | Inactive | 4.88
15 | O=C(c1ccccc1Cl)N1CCN(c2nnc(-c3ccc([N+](=O)[O-])s3)s2)CC1 [CHEMBL458772] | – | – | Inactive | 4.46
16 | O=C(c1cccc(Cl)c1)N1CCN(c2nnc(-c3ccc([N+](=O)[O-])s3)s2)CC1 [CHEMBL458778] | – | – | Inactive | 4.30
17 | O=C(c1cccs1)N1CCN(c2nnc(-c3ccc([N+](=O)[O-])s3)s2)CC1 [CHEMBL464864] | – | – | Inactive | 4.55
18 | O=C(c1ccc(Cl)s1)N1CCN(c2nnc(-c3ccc([N+](=O)[O-])s3)s2)CC1 [CHEMBL464870] | – | – | Inactive | 4.62
19 | Cc1cccc2oc(=O)c3c(c12)O[C@@H](C)[C@@]3(C)CC(=O)[C@@H]1OC1(C)C [CHEMBL465559] | – | – | Inactive | 4.43

Row | SMILES | Outcome (L. major [1]; [3]) | pIC50 Value (L. major [2]; [4]) | Outcome (L. major [1]; [5]) | pIC50 Value (L. major [2]; [6])
20 | Clc1ccccc1-c1nc2ccccc2[nH]1 [CHEMBL473162] | Active | 5.47 | – | –
21 | Clc1ccc(-c2nc3ccccc3[nH]2)cc1 [CHEMBL473163] | Active | 5.50 | – | –
22 | O=[N+]([O-])c1ccc(-c2nc3ccccc3[nH]2)cc1 [CHEMBL473361] | Active | 5.53 | – | –
23 | COc1cc(OC)c2c(C)[n+](-c3cccc4c3C(=O)c3ccccc3C4=O)c(C)cc2c1.F[B-](F)(F)F [CHEMBL474599] | – | – | Inactive | 4.00
24 | Cc1nc(-c2ccccn2)nc(N2CCC(Cc3ccccc3)C2)c1Cl (stereo not shown) [CHEMBL474899] | – | – | Active | 5.05
25 | O=[N+]([O-])c1cccc(-c2nc3ccccc3[nH]2)c1 [CHEMBL475377] | Active | 5.47 | – | –
26 | CCOC(=O)C1=C(C)NC(C)=C(C(=O)OC)C1c1cccc([N+](=O)[O-])c1 (stereo not shown) [CHEMBL475534] | – | – | Inactive | 4.48
27 | COc1cc(OC)c2c(C)[n+](-c3cccc4ccccc34)c(C)cc2c1.F[B-](F)(F)F [CHEMBL479641] | Active | 5.79 | – | –
28 | CCc1ccc(-[n+]2c(C)cc3cc(OC)cc(OC)c3c2C)cc1.F[B-](F)(F)F [CHEMBL479649] | – | – | Active | 5.26
29 | COc1cc(OC)c2c(C)[n+](-c3ccc4ccccc4c3)c(C)cc2c1.F[B-](F)(F)F [CHEMBL479838] | Active | 5.47 | – | –
30 | COc1cc2c(c(OC)c1)C(C)N(c1ccc(OC)c3c(OC)cc(C)cc13)[C@@H](C)C2 (stereo partly shown) [CHEMBL479849] | – | – | Inactive | 4.19
31 | COc1cc2c(c(OC)c1)C(C)N(c1ccc(OC)c3c(OC)cc(C)cc13)[C@H](C)C2 (stereo partly shown) [CHEMBL479850] | – | – | Inactive | 4.18
32 | COc1cc(OC)c2c(C)[n+](-c3ccc(O)cc3)c(C)cc2c1.O=C([O-])C(F)(F)F [CHEMBL480760] | – | – | Inactive | 4.80
33 | COc1cc(OC)c2c(C)[n+](-c3ccc(OC(C)=O)cc3)c(C)cc2c1.F[B-](F)(F)F [CHEMBL480761] | – | – | Inactive | 4.00
34 | COc1cc(OC)c2c(C)[n+](-c3cccc(C)c3C)c(C)cc2c1.F[B-](F)(F)F [CHEMBL480823] | – | – | Inactive | 4.94
35 | COc1cc(OC)c2c(C)[n+](-c3c(C)cc(C)cc3C)c(C)cc2c1.F[B-](F)(F)F [CHEMBL480824] | Active | 5.83 | – | –
36 | COc1cc(OC)c2c(C)[n+](-c3ccc(C(C)C)cc3)c(C)cc2c1 [CHEMBL481022] | Active | 5.70 | – | –
37 | CCCCc1ccc(-[n+]2c(C)cc3cc(OC)cc(OC)c3c2C)cc1.F[B-](F)(F)F [CHEMBL481023] | Active | 5.57 | – | –
38 | COc1ccc(-[n+]2c(C)cc3cc(OC)cc(OC)c3c2C)cc1.F[B-](F)(F)F [CHEMBL481565] | – | – | Inactive | 4.00

Row | SMILES | Outcome (L. major [1]; [3]) | pIC50 Value (L. major [2]; [4]) | Outcome (L. major [1]; [5]) | pIC50 Value (L. major [2]; [6])
39 | COc1cc(OC)c2c(C)[n+](-c3ccc(Cl)cc3)c(C)cc2c1.F[B-](F)(F)F [CHEMBL481566] | – | – | Inactive | 4.72
40 | COc1cc2c(c(OC)c1)C(C)N(c1ccc(C(C)C)cc1)C(C)C2 (stereo not shown) [CHEMBL481808] | – | – | Inactive | 4.30
41 | COc1cc(OC)c2c(C)[n+](-c3ccc(C#N)cc3)c(C)cc2c1.O=C([O-])C(F)(F)F [CHEMBL481906] | – | – | Inactive | 4.00
42 | COc1cc(OC)c2c(C)[n+](-c3ccc4ncccc4c3)c(C)cc2c1.O=C([O-])C(F)(F)F [CHEMBL481907] | – | – | Inactive | 4.00
43 | COc1cc(OC)c2c(C)[n+](-c3ccc4cc5ccccc5cc4c3)c(C)cc2c1.F[B-](F)(F)F [CHEMBL482393] | Active | 6.17 | – | –
44 | COc1cc(OC)c2c(C)[n+](-c3cccc4cc5ccccc5cc34)c(C)cc2c1.F[B-](F)(F)F [CHEMBL482394] | Active | 6.14 | – | –
45 | COc1cc(OC)c2c(C)[n+](-c3ccc(C)cc3C)c(C)cc2c1.F[B-](F)(F)F [CHEMBL482395] | Active | 5.48 | – | –
46 | Cn1c([N+](=O)[O-])cnc1-c1nnc(N2CCN(C(=O)c3ccccc3)CC2)s1 [CHEMBL482463] | – | – | Inactive | 4.98
47 | Cn1c([N+](=O)[O-])cnc1-c1nnc(N2CCN(C(=O)c3ccccc3Cl)CC2)s1 [CHEMBL482464] | – | – | Inactive | 4.69
48 | Cn1c([N+](=O)[O-])cnc1-c1nnc(N2CCN(C(=O)c3cccc(Cl)c3)CC2)s1 [CHEMBL482665] | – | – | Inactive | 4.75
49 | Cn1c([N+](=O)[O-])cnc1-c1nnc(N2CCN(C(=O)c3cccs3)CC2)s1 [CHEMBL482666] | – | – | Inactive | 4.59
50 | C[C@H]1COC2=C1C(=O)C(=O)c1c2ccc2c1[C@H](O)CCC2(C)C [CHEMBL485279] | – | – | Inactive | 4.33
51 | CC(C)C1=Cc2ccc3c(c2C(=O)C1=O)C(=O)CCC3(C)C [CHEMBL485479] | – | – | Inactive | 4.75
52 | C[C@H](O)C#CC#CC#CC#CCCCCCCCC(=O)O [CHEMBL487989] | Active | 5.31 | – | –
53 | Cc1ncc(-c2ccnc(Nc3ccc(S(C)(=O)=O)cc3)n2)n1C(C)C [CHEMBL488436] | Active | 5.50 | – | –
54 | C/C=C/c1cc(O)c(OC)c(OC)c1 [CHEMBL489518] | – | – | Inactive | 3.43
55 | C=CCCC/C=C\C/C=C\CCCCCCCc1cc(O)cc(O)c1 [CHEMBL496449] | – | – | Inactive | 4.98
56 | CC(C)=CC(=O)N[C@H]1CC[C@@]2(C)[C@@H](CC[C@@H]3[C@@H]2CC[C@]2(C)C([C@H](C)N(C)C)=CC[C@@H]32)[C@H]1O [CHEMBL496487] | – | – | Inactive | 4.95
